{"source": "paper PMC11820055", "about": "“Human Pharmacokinetic Profiling and Comparative Analysis of Mangiferin and Its Monosodium Derivative from Mangifera indica Extracts Using UHPLC-MS/MS with ^1H NMR and MALDI-TOF Confirmation” (Molecules, 2025)", "key": {"[1]": {"set-up": "method as in doi:10.1155/2019/9272710", "conditions": "male Sprague Dawley rats; cited from earlier work"}, "rats": {"system": "rats", "conditions": "dose of 400 mg of the purified salt; cited from earlier work"}, "mice": {"system": "mice", "conditions": "cited from earlier work"}, "[2]": {"conditions": "cited from earlier work"}, "[3]": {"set-up": "method as in earlier work", "conditions": "pure mangiferin; cited from earlier work"}, "[4]": {"test": "Stability of mangiferin in human plasma QC samples", "assay_type": "in vitro ADME", "conditions": "for Stability (%, Mean ± RSD) Autosampler / Stability (%, Mean ± RSD) Room Temp. / Stability (%, Mean ± RSD) Freeze–Thaw: human plasma QC, n = 6; for Stability (%, Mean ± RSD) Autosampler: autosampler 4 h at 12 °C; for Stability (%, Mean ± RSD) Room Temp.: room temperature for 4 h; for Stability (%, Mean ± RSD) Freeze–Thaw: three cycles of freezing (−80 °C) and thawing (20 °C)", "procedure": "Quality control (QC) samples were prepared in the same manner and evaluated at low, medium, and high concentrations: 50, 500, and 1000 ng/mL. Blank plasma samples were also included in the injection series to account for any potential carryover. The stability of mangiferin in human plasma was evaluated by analyzing the same three levels of QC samples (n = 6) after storage at room temperature for 4 h, in the autosampler for 4 h at 12 °C, and after three cycles of freezing (−80 °C) and thawing (20 °C)."}, "[5]": {"set-up": "method as in PMID 26434292", "conditions": "human plasma, mangiferin >90% purity, cited from earlier work"}}, "note": "Counter-ions that a name gives are not always drawn. Like-named read-outs stand apart in the source and are kept apart here."}
{"smiles": "O=c1c2cc(O)c(O)cc2oc2cc(O)c([C@@H]3O[C@H](CO)[C@@H](O)[C@H](O)[C@H]3O)c(O)c12", "note": "[mangiferin monosodium salt, Monosodium mangiferin]", "values": [{"measurement": "relative bioavailability of the salt vs pure mangiferin based on AUC0–∞", "setting": "[1]", "value": 5.7, "unit": "times"}, {"measurement": "safety in rats", "setting": "rats", "value": "generally safe"}, {"measurement": "maximum tolerated dose (MTD)", "setting": "mice", "value": "12,000 mg/kg"}]}
{"smiles": "O=c1c2cc(O)c(O)cc2oc2cc(O)cc(O)c12", "note": "[norathyriol]", "values": [{"measurement": "Tmax", "setting": "[2]; in vivo", "value": "~15", "unit": "h"}, {"measurement": "absorption of norathyriol as fraction of the mangiferin dose", "setting": "[2]; in vivo", "value": "approximately 0.1%"}]}
{"smiles": "O=c1c2cc(O)c(O)cc2oc2cc(O)c([C@@H]3O[C@H](CO)[C@@H](O)[C@H](O)[C@H]3O)c(O)c12", "note": "[Mangiferin]", "values": [{"measurement": "aqueous solubility", "setting": "[3]", "value": 111, "unit": "µg/mL"}, {"measurement": "increase of exposure on inhibition of the transporter P-gp", "setting": "[2]; pure mangiferin", "value": "approximately threefold"}, {"measurement": "stability throughout the analytical process", "setting": "[4]; human plasma QC samples", "value": "stable"}, {"measurement": "Stability (%, Mean ± RSD) Autosampler", "setting": "[4]; 1.000 ng/mL as printed", "value": "101.63 ± 8.50", "unit": "%"}, {"measurement": "Stability (%, Mean ± RSD) Room Temp.", "setting": "[4]; 1.000 ng/mL as printed", "value": "101.75 ± 8.11", "unit": "%"}, {"measurement": "Stability (%, Mean ± RSD) Freeze–Thaw", "setting": "[4]; 1.000 ng/mL as printed", "value": "102.64 ± 1.05", "unit": "%"}, {"measurement": "Stability (%, Mean ± RSD) Autosampler", "setting": "[4]; 50 ng/mL", "value": "109.92 ± 2.77", "unit": "%"}, {"measurement": "Stability (%, Mean ± RSD) Room Temp.", "setting": "[4]; 50 ng/mL", "value": "103.10 ± 3.66", "unit": "%"}, {"measurement": "Stability (%, Mean ± RSD) Freeze–Thaw", "setting": "[4]; 50 ng/mL", "value": "108.60 ± 3.87", "unit": "%"}, {"measurement": "Stability (%, Mean ± RSD) Autosampler", "setting": "[4]; 500 ng/mL", "value": "102.02 ± 8.81", "unit": "%"}, {"measurement": "Stability (%, Mean ± RSD) Room Temp.", "setting": "[4]; 500 ng/mL", "value": "101.27 ± 9.08", "unit": "%"}, {"measurement": "Stability (%, Mean ± RSD) Freeze–Thaw", "setting": "[4]; 500 ng/mL", "value": "101.68 ± 0.91", "unit": "%"}, {"measurement": "Cmax", "setting": "[5]; 100 mg oral dose", "value": 19.94, "unit": "ng/mL"}, {"measurement": "Cmax", "setting": "[5]; 900 mg oral dose", "value": 38.64, "unit": "ng/mL"}]}
